Data published in patent US20260070945A1, “MACROCYCLIC IMMUNOMODULATORS” (Bristol-Myers Squibb Company, priority 2022, published 2026).
*1 amine or outer side, *2 acyl side, *3 side chain or, on linkers, in order; H or OH if unused. Where a SMILES comes first, the peptide text is derived from it. Bridges are numbered along the chain shown (N, C = ends). [ ]: non-standard residue; d: D form. The star is where a group is joined. ξ: configuration not given here. Phe(4-CH2CH2COOH) = N[C@@H](Cc1ccc(CCC(=O)O)cc1)C(=O)O; Phe(3-CF3) = N[C@@H](Cc1cccc(C(F)(F)F)c1)C(=O)O; Phe(4-CF3) = N[C@@H](Cc1ccc(C(F)(F)F)cc1)C(=O)O; Phe(4-COOH) = N[C@@H](Cc1ccc(C(=O)O)cc1)C(=O)O; Bip = N[C@@H](Cc1ccc(-c2ccccc2)cc1)C(=O)O; NH(CH2)14COOH = O=C(O)CCCCCCCCCCCCCCN*; Phe(3-Me) = Cc1cccc(C[C@H](N)C(=O)O)c1; Phe(4-F) = N[C@@H](Cc1ccc(F)cc1)C(=O)O; γGlu = O=C(O)[C@H](CCC(=O)[*:2])N[*:1]; βAsp = O=C(O)[C@H](CC(=O)[*:2])N[*:1]; NH(CH2)12COOH = O=C(O)CCCCCCCCCCCCN*; Val(3-OH) = CC(C)(O)[C@H](N)C(=O)O; hArg = N=C(N)NCCCC[C@H](N)C(=O)O; Cha = N[C@@H](CC1CCCCC1)C(=O)O; Ile(3ξ) = CCC(C)[C@H](N)C(=O)O; NMeN = CN[C@@H](CC(N)=O)C(=O)O; Thr(3ξ) = CC(O)[C@H](N)C(=O)O; Carboxymethyl = O=C(O)C*; NMeA = CN[C@@H](C)C(=O)O; Orn = NCCC[C@H](N)C(=O)O; Aun = NCCCCCCCCCCC(=O)O; Dab = NCC[C@H](N)C(=O)O; Dap = NC[C@H](N)C(=O)O; AEEA = NCCOCCOCC(=O)O

What follows are compounds tested against T1, PD-1/PD-L1 interaction (PE-labeled human PD-L1-Ig binding to Jurkat cell line over-expressing human PD-1) (Homo sapiens, UniProt Q15116) (assay: Jurkat-PD-1 Cell Binding High-Content Screening Assay (CBA)). Details: Jurkat-hPD-1 cells, PE-labeled PD-L1-Ig 20 nM final; read-out: Jurkat HPD1 PDL1 IC50.
T1 construct: expressed in transfected cells; host or cells: Jurkat
T1 sequence (Q15116 25-288): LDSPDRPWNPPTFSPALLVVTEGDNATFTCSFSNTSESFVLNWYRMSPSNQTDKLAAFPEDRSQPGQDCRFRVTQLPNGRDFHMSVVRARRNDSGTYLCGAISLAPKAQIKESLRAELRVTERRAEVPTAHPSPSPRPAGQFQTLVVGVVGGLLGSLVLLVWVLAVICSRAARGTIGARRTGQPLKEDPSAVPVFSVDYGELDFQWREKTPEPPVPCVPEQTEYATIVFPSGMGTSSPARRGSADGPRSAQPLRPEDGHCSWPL
Summary of the method: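 Read-out: high-content imaging of cell-bound PE fluorescence, with Hoechst 33342 nuclear counterstain after paraformaldehyde fixation. Before labeled ligand (20 nM final, 1 h) was added, compound sat on the cells for 2 h at 37 °C in DMEM/10% FCS.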

SMILES	IC50 [nM]
CCC(C)[C@@H]1NC(=O)[C@H](Cc2ccc(-c3ccccc3)cc2)NC(=O)[C@H](CC(C)C)NC(=O)[C@H](Cc2c[nH]c3ccccc23)NC(=O)[C@H](CC(=O)O)NC(=O)[C@H](Cc2ccc(C(=O)O)cc2)NC(=O)[C@H](Cc2ccc(OCC(=O)O)cc2)NC(=O)CSC[C@@H](C(=O)N[C@@H](CC(N)=O)C(=O)N[C@@H](CCC(=O)NCCCCCCCCCCC(=O)O)C(=O)O)NC(=O)[C@H](CO)NC(=O)[C@H](C(C)C)NC(=O)[C@H](CC2CCCCC2)NC(=O)[C@H](CCN)NC(=O)[C@@H](CC(C)C)NC(=O)[C@H](C)N(C)C1=O (stereo partly drawn) [Example 2069] ({CH2CO}-Y(Carboxymethyl)[Phe(4-COOH)]DWL[Bip][Ile(3ξ)][NMeA][dL][Dab][Cha]VSCN[γGlu][Aun]-OH; thioether N-14)	24.5
Cc1cccc(C[C@@H]2NC(=O)[C@H](CC(=O)O)NC(=O)[C@H](Cc3ccc(OCC(=O)O)cc3)NC(=O)[C@H](CN)NC(=O)CSC[C@@H](C(=O)N[C@@H](CCN)C(=O)NCCOCCOCC(=O)NCCCCCCCCCCC(=O)O)NC(=O)[C@H](CCCN)NC(=O)[C@H](C(C)C)NC(=O)[C@H](CC3CCCCC3)NC(=O)[C@H](CCN)NC(=O)[C@@H](CC(C)C)NC(=O)[C@H](C)N(C)C(=O)[C@H](Cc3ccc(O)cc3)NC(=O)[C@H](Cc3ccc(-c4ccccc4)cc3)NC(=O)[C@H](Cc3ccc(O)cc3)NC2=O)c1 [Example 1312] ({CH2CO}-[Dap]Y(Carboxymethyl)D[Phe(3-Me)]Y[Bip]Y[NMeA][dL][Dab][Cha]V[Orn]C[Dab][AEEA][Aun]-OH; thioether N-14)	27.4
CC(C)C[C@H]1NC(=O)[C@H](C)N(C)C(=O)[C@H](C(C)C)NC(=O)[C@H](Cc2ccc(-c3ccccc3)cc2)NC(=O)[C@H](C(C)C)NC(=O)[C@H](Cc2c[nH]c3ccccc23)NC(=O)[C@H](CC(=O)O)NC(=O)[C@H](CCCCNC(=N)N)NC(=O)[C@H](Cc2ccc(OCC(=O)O)cc2)NC(=O)CSC[C@@H](C(=O)N[C@@H](CCCCN)C(=O)NCCOCCOCC(=O)NCCCCCCCCCCC(=O)O)NC(=O)[C@H](CO)NC(=O)[C@H](C(C)C)NC(=O)[C@H](CC2CCCCC2)NC(=O)[C@H](CCN)NC1=O [Example 2103] ({CH2CO}-Y(Carboxymethyl)[hArg]DWV[Bip]V[NMeA][dL][Dab][Cha]VSCK[AEEA][Aun]-OH; thioether N-14)	29.6
Cc1cccc(C[C@@H]2NC(=O)[C@H](CC(=O)O)NC(=O)[C@H](Cc3ccc(C(=O)O)cc3)NC(=O)[C@H](Cc3ccc(OCC(=O)O)cc3)NC(=O)CSC[C@@H](C(=O)NCC(=O)N[C@@H](CC(=O)NCCOCCOCC(=O)N[C@@H](CC(=O)O)C(=O)NCCOCCOCC(=O)NCCCCCCCCCCC(=O)O)C(=O)O)NC(=O)[C@H](CO)NC(=O)[C@H](C(C)C)NC(=O)[C@H](CC(C)C)NC(=O)[C@H](CC(N)=O)NC(=O)[C@@H](CC(C)C)NC(=O)[C@H](C)N(C)C(=O)[C@H](C(C)C)NC(=O)[C@H](Cc3ccc(-c4ccccc4)cc3)NC(=O)[C@H](CC(C)C)NC2=O)c1 [Example 1024] ({CH2CO}-Y(Carboxymethyl)[Phe(4-COOH)]D[Phe(3-Me)]L[Bip]V[NMeA][dL]NLVSCG[βAsp][AEEA]D[AEEA][Aun]-OH; thioether N-14)	87.5
CC[C@H](C)[C@@H]1NC(=O)[C@H](Cc2ccc(-c3ccccc3)cc2)NC(=O)[C@H](CC(C)C)NC(=O)[C@H](Cc2c[nH]c3ccccc23)NC(=O)[C@H](CC(=O)O)NC(=O)[C@H](Cc2ccc(C(=O)O)cc2)NC(=O)[C@H](Cc2ccc(OCC(=O)O)cc2)NC(=O)CSC[C@@H](C(=O)N[C@@H](CCCNC(=N)N)C(=O)NCCOCCOCC(=O)NCCCCCCCCCCC(=O)O)NC(=O)[C@H](CO)NC(=O)[C@H](C(C)C)NC(=O)[C@H](CC2CCCCC2)NC(=O)[C@H](CCN)NC(=O)[C@@H](CC(C)C)NC(=O)[C@H](C)N(C)C1=O [Example 1080] ({CH2CO}-Y(Carboxymethyl)[Phe(4-COOH)]DWL[Bip]I[NMeA][dL][Dab][Cha]VSCR[AEEA][Aun]-OH; thioether N-14)	18.6
Cc1cccc(C[C@@H]2NC(=O)[C@H](CC(=O)O)NC(=O)[C@H](Cc3ccc(OCC(=O)O)cc3)NC(=O)[C@H](C(C)O)NC(=O)CSC[C@@H](C(=O)N[C@@H](CCN)C(=O)NCCOCCOCC(=O)NCCCCCCCCCCC(=O)O)NC(=O)[C@H](CCC(=O)O)NC(=O)[C@H](C(C)(C)O)NC(=O)[C@H](CC3CCCCC3)NC(=O)[C@H](CCN)NC(=O)[C@@H](CC(C)C)NC(=O)[C@H](C)N(C)C(=O)[C@H](Cc3ccc(OCC(=O)O)cc3)NC(=O)[C@H](Cc3ccc(-c4ccccc4)cc3)NC(=O)[C@H](Cc3ccc(C(=O)O)cc3)NC2=O)c1 (stereo partly drawn) [Example 2473] ({CH2CO}-[Thr(3ξ)]Y(Carboxymethyl)D[Phe(3-Me)][Phe(4-COOH)][Bip]Y(Carboxymethyl)[NMeA][dL][Dab][Cha][Val(3-OH)]EC[Dab][AEEA][Aun]-OH; thioether N-14)	32.1
CC(C)C[C@H]1NC(=O)[C@H](C)N(C)C(=O)[C@H](Cc2ccc(C(=O)O)cc2)NC(=O)[C@H](Cc2ccc(-c3ccccc3)cc2)NC(=O)[C@H](Cc2ccc(C(=O)O)cc2)NC(=O)[C@H](Cc2cccc(C(F)(F)F)c2)NC(=O)[C@H](CC(=O)O)NC(=O)[C@H](Cc2ccc(OCC(=O)O)cc2)NC(=O)[C@H](Cc2ccc(C(=O)O)cc2)NC(=O)CSC[C@@H](C(=O)N[C@@H](CCN)C(=O)NCCOCCOCC(=O)N[C@@H](CCC(=O)NCCOCCOCC(=O)NCCCCCCCCCCCCC(=O)O)C(=O)O)NC(=O)[C@H](CCC(=O)O)NC(=O)[C@H](C(C)C)NC(=O)[C@H](CC2CCCCC2)NC(=O)[C@H](CCN)NC1=O [Example 1160] ({CH2CO}-[Phe(4-COOH)]Y(Carboxymethyl)D[Phe(3-CF3)][Phe(4-COOH)][Bip][Phe(4-COOH)][NMeA][dL][Dab][Cha]VEC[Dab][AEEA][γGlu][AEEA]-{NH(CH2)12COOH}; thioether N-14)	101
CCC(C)[C@@H]1NC(=O)[C@H](Cc2ccc(-c3ccccc3)cc2)NC(=O)[C@H](CC(C)C)NC(=O)[C@H](Cc2c[nH]c3ccccc23)NC(=O)[C@H](CC(=O)O)NC(=O)[C@H](Cc2ccc(OCC(=O)O)cc2)NC(=O)[C@H](C(C)O)NC(=O)CSC[C@@H](C(=O)N[C@H](CC(N)=O)C(=O)NCCOCCOCC(=O)NCCCCCCCCCCC(=O)O)NC(=O)[C@H](CO)NC(=O)[C@H](C(C)C)NC(=O)[C@H](CC(C)C)NC(=O)[C@H](CCN)NC(=O)[C@@H](CC(C)C)NC(=O)[C@H](C)N(C)C1=O (stereo partly drawn) [Example 2058] ({CH2CO}-[Thr(3ξ)]Y(Carboxymethyl)DWL[Bip][Ile(3ξ)][NMeA][dL][Dab]LVSC[dN][AEEA][Aun]-OH; thioether N-14)	59.9
Cc1cccc(C[C@@H]2NC(=O)[C@H](CC(=O)O)NC(=O)[C@H](Cc3ccc(OCC(=O)O)cc3)NC(=O)[C@H](CCCNC(=N)N)NC(=O)CSC[C@@H](C(=O)N(C)[C@@H](CC(N)=O)C(=O)NCCCCCCCCCCC(=O)O)NC(=O)[C@H](C(C)O)NC(=O)[C@H](C(C)C)NC(=O)[C@H](CC3CCCCC3)NC(=O)[C@H](CCN)NC(=O)[C@@H](CC(C)C)NC(=O)[C@H](C)N(C)C(=O)[C@H](C(C)C)NC(=O)[C@H](Cc3ccc(-c4ccccc4)cc3)NC(=O)[C@H](C(C)C)NC2=O)c1 (stereo partly drawn) [Example 2381] ({CH2CO}-RY(Carboxymethyl)D[Phe(3-Me)]V[Bip]V[NMeA][dL][Dab][Cha]V[Thr(3ξ)]C[NMeN][Aun]-OH; thioether N-14)	33.8

Same assay, conditions: PE-labeled PD-L1-Ig 20 nM final, Jurkat-hPD-1 cells; read-out: Jurkat HPD1 PDL1 IC50

SMILES	IC50 [nM]
Cc1cccc(C[C@@H]2NC(=O)[C@H](CC(=O)O)NC(=O)[C@H](Cc3ccc(OCC(=O)O)cc3)NC(=O)[C@H](Cc3ccc(F)cc3)NC(=O)CSC[C@@H](C(=O)N[C@@H](CCN)C(=O)NCCOCCOCC(=O)NCCCCCCCCCCC(=O)O)NC(=O)[C@H](CCC(=O)O)NC(=O)[C@H](C(C)C)NC(=O)[C@H](CC3CCCCC3)NC(=O)[C@H](CCN)NC(=O)[C@@H](CC(C)C)NC(=O)[C@H](C)N(C)C(=O)[C@H](Cc3ccc(OCC(=O)O)cc3)NC(=O)[C@H](Cc3ccc(-c4ccccc4)cc3)NC(=O)[C@H](Cc3ccc(OCC(=O)O)cc3)NC2=O)c1 [Example 2560] ({CH2CO}-[Phe(4-F)]Y(Carboxymethyl)D[Phe(3-Me)]Y(Carboxymethyl)[Bip]Y(Carboxymethyl)[NMeA][dL][Dab][Cha]VEC[Dab][AEEA][Aun]-OH; thioether N-14)	2.1
CC(=O)NCCCC[C@@H]1NC(=O)[C@H](C(C)(C)O)NC(=O)[C@H](CC2CCCCC2)NC(=O)[C@H](CCN)NC(=O)[C@@H](CC(C)C)NC(=O)[C@H](C)N(C)C(=O)[C@H](CCC(N)=O)NC(=O)[C@H](Cc2ccc(-c3ccccc3)cc2)NC(=O)[C@H](Cc2ccc(C(=O)O)cc2)NC(=O)[C@H](Cc2cccc(C)c2)NC(=O)[C@H](CC(=O)O)NC(=O)[C@H](Cc2ccc(C(F)(F)F)cc2)NC(=O)[C@H](Cc2ccc(OCC(=O)O)cc2)NC(=O)CSC[C@@H](C(=O)N[C@@H](CCN)C(=O)NCCOCCOCC(=O)NCCCCCCCCCCC(=O)O)NC1=O [Example 2595] ({CH2CO}-Y(Carboxymethyl)[Phe(4-CF3)]D[Phe(3-Me)][Phe(4-COOH)][Bip]Q[NMeA][dL][Dab][Cha][Val(3-OH)]K(Ac)C[Dab][AEEA][Aun]-OH; thioether N-14)	11.7
CC(=O)NCCCC[C@@H]1NC(=O)[C@H](C(C)(C)O)NC(=O)[C@H](CC2CCCCC2)NC(=O)[C@H](CCN)NC(=O)[C@@H](CC(C)C)NC(=O)[C@H](C)N(C)C(=O)[C@H](CCC(N)=O)NC(=O)[C@H](Cc2ccc(-c3ccccc3)cc2)NC(=O)[C@H](Cc2ccc(CCC(=O)O)cc2)NC(=O)[C@H](Cc2cccc(C(F)(F)F)c2)NC(=O)[C@H](CC(=O)O)NC(=O)[C@H](Cc2ccc(OCC(=O)O)cc2)NC(=O)[C@H](Cc2ccc(OCC(=O)O)cc2)NC(=O)CSC[C@@H](C(=O)N[C@@H](CCN)C(=O)NCCCCCCCCCCCCCCC(=O)O)NC1=O [Example 2607] ({CH2CO}-Y(Carboxymethyl)Y(Carboxymethyl)D[Phe(3-CF3)][Phe(4-CH2CH2COOH)][Bip]Q[NMeA][dL][Dab][Cha][Val(3-OH)]K(Ac)C[Dab]-{NH(CH2)14COOH}; thioether N-14)	35.1
